Active and inactive are the calls of the source. No cut-off for these calls is given here.

For test [1], the target named is Microtubule-associated protein tau (Homo sapiens) (UniProt P10636). Nature of the test: Inhibition of tau K18 domain (unknown origin) assessed as inhibition of heparin-induced aggregation by measuring increase in brightness by transmission electron microscopy.
The species entered for the next test is Homo sapiens. As to the kind of experiment: Inhibition of hexahistidine-tagged tau K18 domain C291S/C322S mutant (unknown origin) expressed in Escherichia coli BL21 (DE3) assessed as inhibition of heparin-induced aggregation by measuring protein aggregation rate at 10 uM by thioflavin-T fluorescence assay relative to control. Also on record: scale not given: the % may be the effect or the level left.

In test [2] the target is Microtubule-associated protein tau (Homo sapiens) (UniProt P10636). Nature of the test: Binding affinity to tau K18 domain (unknown origin) assessed as cysteine labelling efficiency by measuring free thiol ratio at 200 uM incubated for 24 hrs by Ellmans method relative to control. Background: Ellman's reagent forms a yellow product with free thiols.
Test [3] has the same target. As to the kind of experiment: Inhibition of tau K18 domain (unknown origin) assessed as inhibition of heparin-induced aggregation by measuring protein aggregation rate at 10 uM by thioflavin-T fluorescence assay relative to control. Also on record: scale not given: the % may be the effect or the level left.
For test [4] the target is unchanged. Nature of the test: Covalent binding affinity to tau K18 domain monomer (unknown origin) assessed as labelling at Cys291 residue incubated for 24 hrs and measured following trypsin digestion by LC-MS/MS analysis.
Test [5] shares this target. As to the kind of experiment: Inhibition of tau K18 domain (unknown origin) assessed as inhibition of heparin-induced aggregation by measuring protein aggregation rate at 250 uM by thioflavin-T fluorescence assay relative to control. Also on record: scale not given: the % may be the effect or the level left.
Test [6] shares this target. Nature of the test: Covalent binding affinity to tau K18 domain monomer (unknown origin) assessed as labelling at Cys322 residue incubated for 24 hrs and measured following trypsin digestion by LC-MS/MS analysis.
For test [7] the target is unchanged. Nature of the test: Inhibition of tau K18 domain (unknown origin) assessed as inhibition of heparin-induced aggregation by measuring protein aggregation rate at 50 uM by thioflavin-T fluorescence assay relative to control. Also on record: scale not given: the % may be the effect or the level left.
Test [8] shares this target. Nature of the test: Inhibition of tau K18 domain (unknown origin) assessed as inhibition of heparin-induced aggregation by measuring protein aggregation rate at 500 uM by thioflavin-T fluorescence assay relative to control. Also on record: scale not given: the % may be the effect or the level left.
Test [9] has the same target. As to the kind of experiment: Inhibition of tau K18 domain (unknown origin) assessed as inhibition of heparin-induced aggregation by measuring protein aggregation rate at 1000 uM by thioflavin-T fluorescence assay relative to control. Also on record: scale not given: the % may be the effect or the level left.
Test [10] shares this target. Nature of the test: Inhibition of tau K18 domain (unknown origin) assessed as inhibition of heparin-induced aggregation by measuring protein aggregation rate at 100 uM by thioflavin-T fluorescence assay relative to control. Also on record: scale not given: the % may be the effect or the level left.
Test [11] has the same target. As to the kind of experiment: Binding affinity to tau K18 domain (unknown origin) assessed as cysteine labelling at 250 uM incubated for 18 hrs by 15N-HSQC NMR spectroscopy.
The target is the same in test [12]. As to the kind of experiment: Inhibition of tau K18 domain (unknown origin) assessed as inhibition of heparin-induced aggregation by measuring reduction in intensity at 215 nm with random coil conformation by CD spectrometry.

Chain of Microtubule-associated protein tau (Homo sapiens) (P10636 whole entry, the tested form may be a part): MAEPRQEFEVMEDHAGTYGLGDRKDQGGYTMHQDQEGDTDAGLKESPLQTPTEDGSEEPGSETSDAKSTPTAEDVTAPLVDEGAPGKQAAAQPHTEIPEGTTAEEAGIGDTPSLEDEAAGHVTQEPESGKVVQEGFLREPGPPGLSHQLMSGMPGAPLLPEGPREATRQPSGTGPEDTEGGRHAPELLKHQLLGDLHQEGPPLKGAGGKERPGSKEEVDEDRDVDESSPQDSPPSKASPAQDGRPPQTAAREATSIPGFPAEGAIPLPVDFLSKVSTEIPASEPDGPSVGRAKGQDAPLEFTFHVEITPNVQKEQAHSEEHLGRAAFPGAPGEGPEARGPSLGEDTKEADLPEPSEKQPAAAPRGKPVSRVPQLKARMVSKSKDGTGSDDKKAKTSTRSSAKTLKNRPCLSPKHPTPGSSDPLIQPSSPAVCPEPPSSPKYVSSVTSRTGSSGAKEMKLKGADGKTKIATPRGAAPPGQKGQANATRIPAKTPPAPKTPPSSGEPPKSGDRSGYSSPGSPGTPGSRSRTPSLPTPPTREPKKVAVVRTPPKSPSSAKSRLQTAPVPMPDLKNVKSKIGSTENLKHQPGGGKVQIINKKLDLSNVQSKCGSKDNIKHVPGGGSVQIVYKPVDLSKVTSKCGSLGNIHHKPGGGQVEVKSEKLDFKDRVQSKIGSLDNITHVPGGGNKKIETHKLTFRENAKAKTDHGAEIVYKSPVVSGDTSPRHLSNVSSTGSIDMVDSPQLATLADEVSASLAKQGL

Regarding `C=CS(=O)(=O)NCCNC(=O)O[C@H]1CC[C@@]2(C)C(=CC[C@H]3[C@@H]4CC[C@H]([C@H](C)CCCC(C)C)[C@@]4(C)CC[C@@H]32)C1`, in [1], the inhibition entry was “Active”. Moreover, the Activity turned out to be 100% in the test listed under Homo sapiens, 56.7% in test [2] and 39.7% in [3].

Consider `C=CS(=O)(=O)c1ccccc1`, for which the Activity in [3] was 97.7%.

For `C=CS(=O)(=O)Nc1ccc(C(=O)NCCCCCC(=O)N[C@@H](CCC(=O)O)C(=O)N[C@@H](C)C(=O)N[C@@H](C)C(=O)N[C@@H](CCC(=O)O)C(=O)N[C@@H](C)C(=O)N[C@@H](CCCCN)C(=O)N[C@@H](C)C(=O)N[C@@H](C)C(=O)NC(CCCCn2cc(CNC(=O)[C@H](Cc3c[nH]c4ccccc34)NC3C(=O)c4ccccc4C(=O)C3Cl)nn2)C(=O)O)cc1` (stereo partly drawn), the inhibition entry in test [1] is “Active”. The results for the Activity (in the test filed under Homo sapiens; in test [2]; in [3]) were 57.9%, 39.7% and 15.7%, respectively. Moreover, the outcome in test [4] was Active.

For `C=CS(=O)(=O)Cc1ccc2ccccc2c1`, the Activity in test [3] amounted to 111%.

Turning to `C=CS(=O)(=O)NCc1cc(C(F)(F)F)cc(C(F)(F)F)c1`, the Activity in [3] came out at 96.9%.

For H-DVWMINKKRK-OH, the Activity in the test filed under Homo sapiens was found to be 29.4%; in test [3], 38.1%.

`C=CS(=O)(=O)Cc1c2ccccc2cc2ccccc12`: the Activity worked out at 54.1% in test [5]; 69.4% in the test filed under Homo sapiens; 34.4% in test [2]; 78.2% in test [7]; 43.9% in test [8]; 21.3% in test [3]. Further, the Activity in test [9] was found to be 21.3%; in test [10], 72%. In addition, the result in [6] and in [4] was Active.

Take `C=CS(=O)(=O)Cc1cc(C(F)(F)F)cc(C(F)(F)F)c1`: the outcome in [11], in test [6] and in test [4] was Active. The Activity turned out to be 62.9% in test [5]; 86.7% in the test filed under Homo sapiens; 66.3% in test [2]; 94.4% in test [7]; 43.1% in [8]; 39.8% in test [3]. Further, the Activity was found to be 39.8% in test [9] and 75.3% in test [10].

Take `C=CS(=O)(=O)Cc1ccc(-c2ccc(/C=C3/SC(=S)N(CCC(=O)OCC)C3=O)o2)cc1`: the Activity in test [5] was found to be 50.8%; in the test listed under Homo sapiens it was 83.4%; in test [2], 44.7%; in test [7], 75.4%; in [8], 40.1%; in test [3], 29.2%. The results for the Activity in test [9] and in test [10] were 29.2% and 60.3%, respectively. Moreover, in test [12], the inhibition result is “Active”.

As for `C=CS(N)(=O)=O`, the Activity in test [3] worked out at 110%.

For `C=CS(=O)(=O)Cc1cccc2cccnc12`, in [3], the Activity was 102%.

With `C=CS(=O)(=O)c1cc(C(F)(F)F)cc(C(F)(F)F)c1`, the Activity in [3] was 107%.

As to `C=CS(=O)(=O)Cc1ccc(C(=O)c2ccccc2)cc1`, the Activity in test [3] amounted to 97.3%.
